Columns and labels:
Assay type in all cases: in vivo
[1] = tested on: transforming growth factor beta 2 (TGF-β2); assay: Intestinal gene expression: TGF-β2; conditions: mouse intestine; diet 1 ppm Se, 100 days; compared to controls
Source text: (§1) Animal Care. Male C57BL/6J mice were housed singly and started on the experimental diets described below immediately after weaning (21 days of age). The mice were maintained in the Shared Aging Rodent Facility at the William S. Middleton Memorial Veterans Administration Medical Center (Madison, Wis.). Temperature and humidity were maintained at constant levels. Room light was controlled to provide 12-hr cycles of light and dark.
(§2) Experimental diets were created by Harlan Teklad (Madison, Wis.). Selenium content of the diets was determined by Covance Inc. (Madison, Wis.). Five (5) animals were included in each of the following treatment groups: a diet deficient in selenium (SD); a diet supplemented with selenomethionine (SM, obtained from Sigma, St. Louis, Mo.) such that the final selenium content of the diet was one (1) part per million; a diet supplemented with sodium selenite (SS, Sigma) such that the final concentration of selenium in this diet was one (1) part per million; or a diet supplemented with the yeast selenium SEL-PLEX (SP, Alltech, Lexington, Ky), such that the final concentration of selenium in this diet was one (1) part per million. SEL-PLEX. […]
(§3) Tissue sample preparation and microarray analysis. […] For intestinal expression studies, the intestine was flushed twice with saline solution and small intestine was measured and divided in three equal segments. […]

selenoprotein N1 (Sepn1) = assay: Intestinal gene expression: selenoprotein N1; conditions: mouse intestine; diet 1 ppm Se, 100 days; vs selenium deficient
Source text: as §1, §2, §3

Glyoxalase 1 (Glo 1) = assay: Intestinal gene expression: Glo1; conditions: mouse intestine; diet 1 ppm Se, 100 days; vs selenium deficient
Source text: as §1, §2, §3

CORS-26 = assay: Cerebral cortex gene expression: CORS-26; conditions: mouse cerebral cortex; diet 1 ppm Se, 100 days; vs selenium deficient
Source text: as §1, §2, §3

[2] = tested on: LIM homeobox protein 8 gene (Lhx8); assay: Intestinal gene expression: Lhx8; conditions: mouse intestine; diet 1 ppm Se, 100 days; vs Se-deficient subjects
Source text: as §1, §2, §3

Prohibitin (Phb) = assay: Intestinal gene expression: Prohibitin; conditions: mouse intestine; diet 1 ppm Se, 100 days; vs selenium deficient; p<0.05
Source text: as §1, §2, §3

[3] = tested on: Cu chaperone for SOD, (CCS); assay: Intestinal gene expression: Cu chaperone for SOD; conditions: mouse intestine; diet 1 ppm Se, 100 days; vs selenium deficient
Source text: as §1, §2, §3

[4] = tested on: Glutathione S-transferase, mu3 (Gstm3); assay: Intestinal gene expression: Gstm3; conditions: mouse intestine; diet 1 ppm Se, 100 days; vs Se-deficient diets; negative = down; NS = not significant
Source text: as §1, §2, §3

[5] = tested on: Glutathione S-transferase, theta 2 (Gstt2); assay: Intestinal gene expression: Gstt2; conditions: mouse intestine; diet 1 ppm Se, 100 days; vs Se-deficient diets; negative = down; NS = not significant
Source text: as §1, §2, §3

[6] = tested on: Glutathione S-transferase, mu2 (Gstm2); assay: Intestinal gene expression: Gstm2; conditions: mouse intestine; diet 1 ppm Se, 100 days; vs Se-deficient diets; negative = down; NS = not significant
Source text: as §1, §2, §3

SMILES	TGF-β2 expression, upregulated [1]	selenoprotein N1 (Sepn1) expression level, increased (selenoprotein N1 (Sepn1))	Glo1 expression, reduction of expression (Glyoxalase 1 (Glo 1))	CORS-26 expression, reduction in expression (CORS-26)	Lhx8 expression, upregulated [2]	Prohibitin (Phb) expression, upregulated (Prohibitin (Phb)) [fold]	enhancement in the expression of the Cu chaperone for SOD (CCS) [3] [fold]	FC Gstm3 expression [4] [fold]	FC Gstt2 expression [5] [fold]	FC Gstm2 expression [6] [fold]
C[Se]CC[C@H](N)C(=O)O [SeM, selenomethionine]	not altered	not significantly affected	not significantly affected	no alteration	not significantly different	1.6				
O=[Se](O)O [Sod-sel, sodium selenite]							1.28	−2.7	−1.3	−2.1

Reference: patent publication US20070155687A1, “Methods and compositions for altering cell function” (Alltech, Inc., priority 2005, published 2007)
